{"source": "patent US9981945B2", "about": "“Pyrimidine derivatives as CFTR modulators” (NuBridge BioSciences, priority 2015, dated 2018)", "target": "T1, ΔF508 mutant CFTR (Homo sapiens, UniProt P13569, DEL508-508)", "T1 construct": "expressed in transfected cells; host or cells: Fischer rat thyroid (FRT) cells", "T1 sequence (P13569 with tags, fused parts or gaps DEL508-508)": "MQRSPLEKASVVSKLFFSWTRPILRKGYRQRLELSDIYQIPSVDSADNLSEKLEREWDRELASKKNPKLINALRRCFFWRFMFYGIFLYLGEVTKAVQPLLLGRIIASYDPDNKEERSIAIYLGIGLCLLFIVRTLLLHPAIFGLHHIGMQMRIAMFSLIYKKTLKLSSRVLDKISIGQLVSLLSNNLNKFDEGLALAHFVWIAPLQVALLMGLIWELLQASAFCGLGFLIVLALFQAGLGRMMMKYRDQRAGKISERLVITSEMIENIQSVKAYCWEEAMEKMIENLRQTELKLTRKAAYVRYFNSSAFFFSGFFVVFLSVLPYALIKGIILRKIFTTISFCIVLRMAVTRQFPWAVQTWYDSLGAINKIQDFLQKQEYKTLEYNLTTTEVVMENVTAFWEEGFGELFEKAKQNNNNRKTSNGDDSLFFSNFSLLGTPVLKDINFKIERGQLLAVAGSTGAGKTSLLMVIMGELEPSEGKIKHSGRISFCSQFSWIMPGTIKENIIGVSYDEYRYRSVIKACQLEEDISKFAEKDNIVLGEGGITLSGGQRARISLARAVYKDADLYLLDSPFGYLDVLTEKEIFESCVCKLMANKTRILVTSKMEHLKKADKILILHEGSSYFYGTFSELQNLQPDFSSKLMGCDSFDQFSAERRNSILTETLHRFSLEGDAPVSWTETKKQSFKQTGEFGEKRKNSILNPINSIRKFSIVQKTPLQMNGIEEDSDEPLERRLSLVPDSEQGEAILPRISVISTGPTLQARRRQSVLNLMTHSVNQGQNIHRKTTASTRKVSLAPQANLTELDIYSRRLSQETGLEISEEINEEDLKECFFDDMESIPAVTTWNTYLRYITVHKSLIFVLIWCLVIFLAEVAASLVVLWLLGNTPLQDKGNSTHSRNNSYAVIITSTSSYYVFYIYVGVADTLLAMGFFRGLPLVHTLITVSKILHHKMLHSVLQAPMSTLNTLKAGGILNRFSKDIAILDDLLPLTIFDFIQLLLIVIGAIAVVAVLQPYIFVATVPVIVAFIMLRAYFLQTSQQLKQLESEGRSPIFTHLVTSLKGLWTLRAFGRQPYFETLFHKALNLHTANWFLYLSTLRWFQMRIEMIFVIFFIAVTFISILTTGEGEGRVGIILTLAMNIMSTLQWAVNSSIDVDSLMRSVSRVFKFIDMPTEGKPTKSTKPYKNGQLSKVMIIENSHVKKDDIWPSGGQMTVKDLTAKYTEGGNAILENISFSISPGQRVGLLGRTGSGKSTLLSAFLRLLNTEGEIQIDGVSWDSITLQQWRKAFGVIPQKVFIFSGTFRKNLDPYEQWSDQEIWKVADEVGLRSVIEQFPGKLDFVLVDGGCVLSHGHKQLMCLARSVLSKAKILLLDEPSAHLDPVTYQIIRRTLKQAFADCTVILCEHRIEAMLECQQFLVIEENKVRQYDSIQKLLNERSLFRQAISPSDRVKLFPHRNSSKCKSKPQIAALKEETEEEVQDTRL", "assay": "Fluorescence (YFP halide quenching) assay of ΔF508 mutant CFTR activity in FRT cells", "type": "cell-based", "parameters": "key: fold of mean activity with forskolin alone (I− quenching rate)", "details": "FRT cells expressing ΔF508-CFTR and YFP-H148Q/I152L, rescued at 27° C. 20-24 h; forskolin 20 μM + test compound 20 μM for 20 min; I− influx rate normalized to forskolin alone", "from_the_text": "The ΔF508 mutant CFTR activities of the CFTR modulators are detected using the Fluorescence Assay developed by Pedemonte (Pedemonte N., et al., Antihypertensive 1,4-dihydropyridines as correctors of the cystic fibrosis transmembrane conductance regulator channel gating defect caused by cystic fibrosis mutations, Mol. Pharmacol., 2005, 68, 1736-1746).\nFischer rat thyroid (FRT) cells, stably transfected with ΔF508 were retransfected with the YFP-H148Q/I152L fluorescent protein. The cells were plated (100,000 cells/well) on black 96-well microplates with clear plastic bottom (Corning Life Sciences, Acton, Mass.).\nThe 96-well microplates containing FRT cells expressing F508-CFTR and the halide-sensitive YFP were incubated at 27° C. for 20 to 24 h to allow rescue of the mutant protein to the plasma membrane. After incubation, cells were washed with PBS (containing 137 mM NaCl, 2.7 mM KCl, 8.1 mM Na2HPO4, 1.5 mM KH2PO4, 1 mM CaCl2, and 0.5 mM MgCl2) and stimulated for 20 min with forskolin (20 μM) and test compounds (20 μM) in a final volume of 60 μl. Microplates were then transferred to a microplate reader for CFTR activity determination. Each assay consisted of a continuous 14-s fluorescence reading (5 points per second) with 2 s before and 12 s after injection of 165 μl of an iodide-containing solution (PBS with Cl^− replaced by I^−). Final iodide concentration in the wells was 100 mM. […] To determine I^− influx rate, the final 11 s of the data for each well were fitted with an exponential function to extrapolate initial slope. CFTR activity was determined by measuring the rate of fluorescence quenching induced by extracellular addition of I^−. Data are normalized to the mean activity measured in the presence of forskolin alone.", "data": [{"smiles": "Cl.NCC(CCl)Oc1ncncc1NC(=O)c1nc(-c2c(F)cccc2F)c(F)cc1N", "note": "(centres unmarked) [Example 33, 3-amino-N-(4-((1-amino-3-chloropropan-2-yl)oxy)pyrimidin-5-yl)-6-(2,6-difluorophenyl)-5-fluoropicolinamide hydrochloride]", "values": [{"measurement": "CFTR Activity", "result": 2.2}]}, {"smiles": "Cl.NCC(CCl)COc1ncncc1NC(=O)c1nc(-c2c(F)cccc2F)c(F)cc1N", "note": "(centres unmarked) [Example 34, 3-amino-N-(4-(3-amino-2-(chloromethyl)propoxy)pyrimidin-5-yl)-6-(2,6-difluorophenyl)-5-fluoropicolinamide hydrochloride]", "values": [{"measurement": "CFTR Activity", "result": 2.0}]}, {"smiles": "Cl.Nc1cc(F)c(-c2c(F)cccc2F)nc1C(=O)Nc1cncnc1OCC1CCCNC1", "note": "(centres unmarked) [Example 35, 3-amino-6-(2,6-difluorophenyl)-5-fluoro-N-(4-(piperidin-3-ylmethoxy)pyrimidin-5-yl)picolinamide hydrochloride]", "values": [{"measurement": "CFTR Activity", "result": 2.1}]}, {"smiles": "Cl.NCCCCOc1ncncc1NC(=O)c1nc(-c2c(F)cccc2F)c(F)cc1N", "note": "[Example 36, 3-amino-N-(4-(4-aminobutoxy)pyrimidin-5-yl)-6-(2,6-difluorophenyl)-5-fluoropicolinamide]", "values": [{"measurement": "CFTR Activity", "result": 2.4}]}, {"smiles": "Cl.Nc1cc(F)c(-c2c(F)cccc2F)nc1C(=O)Nc1cncnc1OC1CCCC(N)C1", "note": "(centres unmarked) [Example 37, 3-amino-N-(4-((3-aminocyclohexyl)oxy)pyrimidin-5-yl)-6-(2,6-difluorophenyl)-5-fluoropicolinamide]", "values": [{"measurement": "CFTR Activity", "result": 4.1}]}, {"smiles": "Cl.Nc1cc(F)c(-c2ccccc2)nc1C(=O)Nc1cncnc1OC1CCNC1", "note": "(centres unmarked) [Example 38, 3-amino-5-fluoro-6-phenyl-N-(4-(pyrrolidin-3-yloxy)pyrimidin-5-yl)picolinamide hydrochloride]", "values": [{"measurement": "CFTR Activity", "result": 1.1}]}, {"smiles": "Cl.O=C(Nc1cncnc1OC1CCNCC1)c1ccc(F)c(-c2ccncc2)n1", "note": "[Example 39, 3-fluoro-N-(4-(piperidin-4-yloxy)pyrimidin-5-yl)-[2,4′-bipyridine]-6-carboxamide hydrochloride]", "values": [{"measurement": "CFTR Activity", "result": 0.5}]}, {"smiles": "Cl.O=C(Nc1cncnc1OC1CCCNCC1)c1nc(-c2c(F)cccc2F)ccc1F", "note": "(centres unmarked) [Example 40, N-(4-(azepan-4-yloxy)pyrimidin-5-yl)-6-(2,6-difluorophenyl)-3-fluoropicolinamide hydrochloride]", "values": [{"measurement": "CFTR Activity", "result": 1.9}]}, {"smiles": "COc1cccc(F)c1-c1nc(C(=O)Nc2cncnc2OC2CCCNCC2)ccc1F.Cl", "note": "(centres unmarked) [Example 41, N-(4-(azepan-4-yloxy)pyrimidin-5-yl)-5-fluoro-6-(2-fluoro-6-methoxyphenyl)picolinamide hydrochloride]", "values": [{"measurement": "CFTR Activity", "result": 1.8}]}, {"smiles": "Cl.O=C(Nc1cncnc1OC1CCCNCC1)c1ccc(C(F)(F)F)c(-c2c(F)cccc2F)n1", "note": "(centres unmarked) [Example 42, N-(4-(azepan-4-yloxy)pyrimidin-5-yl)-6-(2,6-difluorophenyl)-5-(trifluoromethyl)picolinamide hydrochloride]", "values": [{"measurement": "CFTR Activity", "result": 2.4}]}, {"smiles": "Cl.O=C(Nc1cncnc1OCC1CCNCC1)c1ccc(C(F)(F)F)c(-c2c(F)cccc2F)n1", "note": "[Example 43, 6-(2,6-difluorophenyl)-N-(4-(piperidin-4-ylmethoxy)pyrimidin-5-yl)-5-(trifluoromethyl)picolinamide hydrochloride]", "values": [{"measurement": "CFTR Activity", "result": 1.3}]}, {"smiles": "Cl.O=C(Nc1cncnc1OCC1CNC1)c1ccc(C(F)(F)F)c(-c2c(F)cccc2F)n1", "note": "[Example 44, N-(4-(azetidin-3-ylmethoxy)pyrimidin-5-yl)-6-(2,6-difluorophenyl)-5-(trifluoromethyl)picolinamide hydrochloride]", "values": [{"measurement": "CFTR Activity", "result": 1.8}]}, {"smiles": "Cl.O=C(Nc1cncnc1OC1CCNCC1)c1ccc(C(F)(F)F)c(-c2c(F)cccc2F)n1", "note": "[Example 45, 6-(2,6-difluorophenyl)-N-(4-(piperidin-4-yloxy)pyrimidin-5-yl)-5-(trifluoromethyl)picolinamide hydrochloride]", "values": [{"measurement": "CFTR Activity", "result": 2.7}]}, {"smiles": "Cl.N[C@H]1CC[C@H](Oc2ncncc2NC(=O)c2ccc(C(F)(F)F)c(-c3c(F)cccc3F)n2)CC1", "note": "[Example 46, N-(4-(((1r,4r)-4-aminocyclohexyl)oxy)pyrimidin-5-yl)-6-(2,6-difluorophenyl)-5-(trifluoromethyl)picolinamide hydrochloride]", "values": [{"measurement": "CFTR Activity", "result": 3.2}]}]}
